What was measured:
S. pneumoniae ATCC6301 [1] = assay: Mouse survival model (lung infection); type: in vivo; details: CD-1 mice
Procedure: Anaesthetised female CD-1 mice (18-22 g) were inoculated intranasally with approximately 10^6 cfus of S. pneumoniae ATCC6301 prepared from a fresh overnight culture by placing 50 μl of inoculum on the nares and allowing the mice to inhale. Compounds are administered as indicated at 24, 48 and 72 hours post inoculation and the mice monitored for survival for seven or nine days after infection. […] Similarly, when Compound 17 was dosed IV at 30 mg/kg 90% of mice survived at day seven.

S. aureus (ATCC 29213) = assay: Bacterial assay: MIC against S. aureus; type: cell-based, Staphylococcus aureus; details: Staphylococcus aureus, ATCC29213, read-out: minimal inhibitory concentration (MIC)
S. pyogenes (ATCC 51339) = assay: Bacterial assay: MIC against S. pyogenes; type: cell-based, Streptococcus pyogenes; details: Streptococcus pyogenes, ATCC51339, read-out: minimal inhibitory concentration (MIC)
[2] = tested on: H. influenzae (ATCC 49247); assay: Bacterial assay: MIC against H. influenzae; type: cell-based; details: Haemophilus influenzae, ATCC49247; H. influenzae ATCC 49247; read-out: minimal inhibitory concentration (MIC)
S. aureus ATCC29213 = assay: Rat thigh infection model; type: in vivo; details: neutropenic Sprague-Dawley rats, IV ≦40 mg/kg
Procedure: The thighs of Sprague-Dawley rats (250-275 g), rendered neutropenic by the intraperitoneal administration of cyclophosphamide (75 mg/kg on days −4 and −1), were inoculated with approximately 1×10^7 cfus of S. aureus ATCC29213.
Compounds were administered as indicated 2 hours later and the cfus enumerated at various times post dosing by harvesting the thighs, homogenising in PBS on ice and plating serial dilutions onto CLED agar plates for growth at 37° C. and colony counting.

S. pneumoniae ATCC6301 [3] = assay: Mouse lung infection model (Gram positive); type: in vivo; details: CD-1 mice, IV 30 mg/kg, cfus at 48 hours post inoculation
Procedure: Anaesthetised female CD-1 mice (18-22 g) were inoculated intranasally with approximately 10^6 cfus of S. pneumoniae ATCC6301 prepared from a fresh overnight culture by placing 50 μl of inoculum on the nares and allowing the mice to inhale. Compounds were administered as indicated at 24 hours post inoculation and the cfus enumerated at 48 hours post inoculation by harvesting the lungs, homogenising in PBS on ice and plating serial dilutions onto TSA+5% blood plates for growth overnight at 37° C. and colony counting.

| SMILES | survival outcome (S. pneumoniae ATCC6301 [1]; 10 mg/kg) | MIC (S. aureus (ATCC 29213)) [µg/mL] | MIC (S. pyogenes (ATCC 51339)) [µg/mL] | MIC [2] [µg/mL] | log drop in colony forming units compared to the control (S. aureus ATCC29213) [log] | log drop in colony forming units compared to the control (S. pneumoniae ATCC6301 [3]) [log] | mice surviving (S. pneumoniae ATCC6301 [1]; IV 10 mg/kg, at seven or nine days) [%] | mice survived (S. pneumoniae ATCC6301 [1]; IV 30 mg/kg, at day seven) [%] |
| --- | --- | --- | --- | --- | --- | --- | --- | --- |
| CC(=O)NC[C@H]1CN(c2ccc(N3CCOCC3)c(F)c2)C(=O)O1 [Linezolid, reference compound] | dead by day six | – | – | – | – | – | – | – |
| CCNC(=O)Nc1nc2cc(-c3cnc(C(C)(C)O)nc3)cc(-c3ccccn3)c2s1 [Compound 1, 1-ethyl-3-[5-[2-(1-hydroxy-1-methyl-ethyl)pyrimidin-5-yl]-7-(2-pyridyl)-1,3-benzothiazol-2-yl]urea] | – | ≤ 1 | ≤ 1 | ≤ 2 | ≥ 3 | ≥ 3 | 80 | – |
| CCNC(=O)Nc1nc2cc(-c3cnc(C(C)O)nc3)cc(-c3ccccn3)c2s1 (centres unmarked) [Compound 17, 1-ethyl-3-[5-[2-(1-hydroxyethyl)pyrimidin-5-yl]-7-(2-pyridyl)-1,3-benzothiazol-2-yl]urea] | – | ≤ 1 | ≤ 1 | ≤ 2 | – | – | – | 90 |
| CCNC(=O)Nc1nc2cc(-c3cnc(N4CCC(C)(C(=O)O)CC4)nc3)cc(-c3cc(C(C)(C)O)ccn3)c2s1 [Compound 74, 1-[5-[2-(ethylcarbamoylamino)-7-[4-(1-hydroxy-1-methyl-ethyl)-2-pyridyl]-1,3-benzothiazol-5-yl]pyrimidin-2-yl]-4-methyl-piperidine-4-carboxylic acid] | – | ≤ 1 | ≤ 1 | ≤ 2 | – | – | – | – |
| CCNC(=O)Nc1nc2cc(-c3cnc([C@@H](O)[C@H](O)C(F)F)nc3)cc(-c3ccccn3)c2s1 (relative stereo) [Compound 130, 1-[5-[2-[(1R*,2S*)-3,3-difluoro-1,2-dihydroxy-propyl]pyrimidin-5-yl]-7-(2-pyridyl)-1,3-benzothiazol-2-yl]-3-ethyl-urea] | – | ≤ 1 | ≤ 1 | ≤ 2 | – | – | – | – |
| CCNC(=O)Nc1nc2cc(-c3cnc([C@H](C)O)nc3)cc(-c3cc(CN4CCOCC4)ccn3)c2s1 [Compound 122, 1-ethyl-3-[5-[2-[(1S)-1-hydroxyethyl]pyrimidin-5-yl]-7-[4-(morpholinomethyl)-2-pyridyl]-1,3-benzothiazol-2-yl]urea] | – | ≤ 1 | ≤ 1 | ≤ 2 | – | – | – | – |
| CCNC(=O)Nc1nc2cc(-c3cnc(C(C)(C)O)nc3)cc(-c3cc(CN4CC[C@@H](F)C4)ccn3)c2s1 [Compound 36, 1-ethyl-3-[7-[4-[[(3R)-3-fluoropyrrolidin-1-yl]methyl]-2-pyridyl]-5-[2-(1-hydroxy-1-methyl-ethyl)pyrimidin-5-yl]-1,3-benzothiazol-2-yl]urea] | – | ≤ 1 | ≤ 1 | ≤ 2 | – | – | – | – |
| CCNC(=O)Nc1nc2cc(-c3cnc(C(C)O)nc3)cc(-c3cc(CSC)ccn3)c2s1 (centres unmarked) [Compound 15, 1-ethyl-3-[5-[2-(1-hydroxyethyl)pyrimidin-5-yl]-7-[4-(methylsulfanylmethyl)-2-pyridyl]-1,3-benzothiazol-2-yl]urea] | – | ≤ 1 | ≤ 1 | ≤ 2 | – | – | – | – |
| CCNC(=O)Nc1nc2cc(-c3cnc([C@@H](C)O)nc3)cc(-c3cc(CN4CCOCC4)ccn3)c2s1 [Compound 121, 1-ethyl-3-[5-[2-[(1R)-1-hydroxyethyl]pyrimidin-5-yl]-7-[4-(morpholinomethyl)-2-pyridyl]-1,3-benzothiazol-2-yl]urea] | – | ≤ 1 | ≤ 1 | ≤ 2 | – | – | – | – |
| CCNC(=O)Nc1nc2cc(-c3cnc(C(C)(C)O)nc3)cc(-c3cc(N4CCC(C)(C(=O)O)CC4)ncn3)c2s1 [Compound 87, 1-[6-[2-(ethylcarbamoylamino)-5-[2-(1-hydroxy-1-methyl-ethyl)pyrimidin-5-yl]-1,3-benzothiazol-7-yl]pyrimidin-4-yl]-4-methyl-piperidine-4-carboxylic acid] | – | ≤ 1 | ≤ 1 | ≤ 2 | – | – | – | – |

— patent US20170260178A1 (SPERO GYRASE, INC., priority 2012, published 2017)
